This is an account of results in BindingDB's records for doi:10.7270/Q2CV4GM1 (D3R/Abbott, 2015).

Each structure is given as a SMILES string. Several values for one entry are separate records, joined by “and”; a condition that tells them apart may be missing. Equal entries are not always repeated.

The target in the assay is T1, Tyrosine-protein kinase SYK [355-635] (Homo sapiens, UniProt P43405).
T1 construct: 355-635
Description: SYK assay_HTRF.

Usually IC50 stands for the concentration that gives 50% inhibition. Low values mean inhibition by little substance, high ones a need for much substance. For `c1cc(Nc2nccc(Nc3cccc4[nH]ncc34)n2)cc(-c2nnn[nH]2)c1` [GTC000130A], the IC50 is 3.43 nM and 14.3 nM.
In the case of `FC(F)(F)c1ccc(Nc2nccc(Nc3cccc4[nH]ncc34)n2)cc1` [GTC000136A] it was 206 nM; in that of `c1cc(Nc2ccnc(Nc3ccc4oncc4c3)n2)c2cn[nH]c2c1` [GTC000160A], 48.4 nM and 76 nM; in that of `O=S(=O)(Nc1nccs1)c1ccc(Nc2nccc(Nc3cccc4[nH]ncc34)n2)cc1` [GTC000186A], 615 nM and 427 nM.
Then `NS(=O)(=O)c1cccc(Nc2ncc(F)c(N(CCCO)c3cccc4[nH]ncc34)n2)c1` [GTC000284A], with 8.79 nM; and `O=C(Nc1ccccc1)c1ccc(Nc2nccc(Nc3cccc4[nH]ncc34)n2)cc1` [GTC000182A], with 433 nM and 398 nM.
In the case of `CCN(c1nc(Nc2cccc(S(N)(=O)=O)c2)ncc1Cl)c1cccc2[nH]ncc12` [GTC000355A] it was 56.9 nM; in that of `O=c1ccc2cc(Nc3nccc(Nc4cccc5[nH]ncc45)n3)ccc2o1` [GTC000169A], 421 nM and 242 nM; in that of `Cn1ncc2cc(Nc3nccc(N(CCCCO)c4cccc5[nH]ncc45)n3)ccc21` [GTC000287A], 8.05 nM.
Consider `O=C(O)CCCCN(c1ccnc(Nc2ccc3c(c2)S(=O)(=O)NC3)n1)c1cccc2[nH]ncc12` [GTC000229A], for which the IC50 is 1.41 nM and 1.19 nM and 2.47 nM.
With `NCCCN(c1ccnc(Nc2ccc3c(c2)S(=O)(=O)NC3)n1)c1cccc2[nH]ncc12` [GTC000227A], the IC50 was 0.857 nM and 0.75 nM and 3.63 nM.
In the case of `CNC(=O)c1ccc(Nc2nccc(Nc3cccc4[nH]ncc34)n2)cc1` [GTC000146A] it was 65.3 nM and 114 nM; in that of `COC(=O)COc1ccc(Nc2nccc(Nc3cccc4[nH]ncc34)n2)cc1` [GTC000199A], 490 nM.
`Cc1ncoc1-c1cccc(Nc2ncc(F)c(N(C)c3cccc4[nH]ncc34)n2)c1` [GTC000316A] had an IC50 of 16.4 nM. Against the preceding compound, the IC50 is about 30-fold lower.
In the case of `c1cc(Nc2ccnc(Nc3ccc(N4CCOCC4)cc3)n2)c2cn[nH]c2c1` [GTC000129A] it was 220 nM; in that of `NCCCCN(c1ccnc(Nc2ccc3[nH]c(=O)[nH]c3c2)n1)c1cccc2[nH]ncc12` [GTC000280A], 7.4 nM.
Consider `CCN(c1nc(Nc2ccc3c(cnn3C(C)C)c2)ncc1F)c1cccc2[nH]ncc12` [GTC000305A], for which the IC50 is 29.2 nM and 7.13 nM.
In the case of `Cc1noc(NC(=O)Cc2ccc(Nc3nccc(Nc4cccc5[nH]ncc45)n3)cc2)c1C` [GTC000205A] it was 925 nM; in that of `O=c1[nH]c2ccc(Nc3nccc(N(CC4CCNCC4)c4cccc5[nH]ncc45)n3)cc2[nH]1` [GTC000292A], 10.8 nM.
In the case of `c1cc(Nc2ccnc(Nc3ccc(-c4cnco4)cc3)n2)c2cn[nH]c2c1` [GTC000165A] it was 119 nM and 180 nM and 340 nM and 202 nM.
Consider `COCCCN(c1ccnc(Nc2ccc3[nH]c(=O)[nH]c3c2)n1)c1cccc2[nH]ncc12` [GTC000246A], for which half-maximal inhibition (IC50) was put at 3.6 nM.
Then `O=C(O)Cc1cccc(Nc2nccc(Nc3cccc4[nH]ncc34)n2)c1` [GTC000125A], with 118 nM and 493 nM.
On to `COCCCN(c1ccnc(Nc2cccc(S(C)(=O)=O)c2)n1)c1cccc2[nH]ncc12` [GTC000352A], for which the IC50 was 23.1 nM and 99.3 nM.
In turn, `CN(c1nc(Nc2ccc3c(c2)COC(=O)N3)ncc1F)c1cccc2[nH]ncc12` [GTC000248A] showed an IC50 of 3.9 nM.
Then `NC(=O)c1cccc(Nc2ncc(F)c(N(CCCO)c3cccc4[nH]ncc34)n2)c1` [GTC000344A], with 31.8 nM; and `OCCCCN(c1ccnc(Nc2ccc3nn[nH]c3c2)n1)c1cccc2[nH]ncc12` [GTC000275A], with 6.08 nM.
Then `Cc1nc2ccc(Nc3nccc(Nc4cccc5[nH]ncc45)n3)cc2s1` [GTC000123A], with 60.1 nM and 88.5 nM.
Then `Cn1ncc2ccc(Nc3nccc(Nc4cccc5[nH]ncc45)n3)cc21` [GTC000124A], with 16.8 nM and 21.7 nM; and `CS(=O)(=O)c1cccc(Nc2ncc(F)c(N(CCCO)c3cccc4[nH]ncc34)n2)c1` [GTC000360A], with 79.4 nM.
On to `OCCCN(c1nc(Nc2ccc3nn[nH]c3c2)ncc1F)c1cccc2[nH]ncc12` [GTC000295A], for which the IC50 amounted to 9.53 nM. This IC50 is about 8.3-fold lower than that of the compound before.
In the case of `CN(c1nc(Nc2ccc3cnn(C)c3c2)ncc1F)c1cccc2[nH]ncc12` [GTC000276A] it was 5.98 nM.
In the case of `CCN(c1nc(Nc2cccc(-c3noc(C)n3)c2)ncc1F)c1cccc2[nH]ncc12` [GTC000320A] it was 21.4 nM; in that of `CCN(CC)CCCN(c1ccnc(Nc2cccc(S(N)(=O)=O)c2)n1)c1cccc2[nH]ncc12` [GTC000329A], 23.2 nM and 12.7 nM and 55.7 nM and 25.3 nM.
In the case of `COC(=O)CCCN(c1ccnc(Nc2ccc3c(c2)S(=O)(=O)NC3)n1)c1cccc2[nH]ncc12` [GTC000297A] it was 6.89 nM and 13.9 nM and 13.1 nM; in that of `CS(=O)(=O)NCCCCN(c1ccnc(Nc2ccc3[nH]c(=O)[nH]c3c2)n1)c1cccc2[nH]ncc12` [GTC000288A], 19.8 nM and 5.42 nM; in that of `CCN(c1nc(Nc2ccc(S(N)(=O)=O)cc2)ncc1F)c1cccc2[nH]ncc12` [GTC000261A], 5.04 nM.
As to `O=S(=O)(Cc1cccc(Nc2nccc(Nc3cccc4[nH]ncc34)n2)c1)NCCCO` [GTC000193A], the IC50 came to 575 nM.
In the case of `CS(=O)(=O)c1cccc(Nc2nccc(N(CCCO)c3cccc4[nH]ncc34)n2)c1` [GTC000338A] it was 11.6 nM and 39.7 nM and 85.1 nM.
